From patent publication US4226879A, “Antibiotic composition” (Kyowa Hakko Kogyo Kabushiki Kaisha, priority 1976, dated 1980)
Where a name gives a salt, the structure may show the parent alone.

Test system: Eimeria tenella K-2
Experiment: anticoccidial test in chicks (Example 4)
Conditions: for Caecal lession (numbers of chicks), ++: grade ++ (middle); for Caecal lession (numbers of chicks), +++: grade +++ (heavy)
[1] = 0.025 % in diet, groups of 10 chicks
[2] = 0.0125 % in diet, groups of 10 chicks
[3] = 0.0033 % in diet, groups of 10 chicks
[4] = 0.0066 % in diet, groups of 10 chicks

Compound | Survival ratio (0.0125 % in diet) [%] | Survival ratio (0.025 % in diet) [%] | Caecal lession (numbers of chicks), ++ [1] | Caecal lession (numbers of chicks), +++ [2] | Caecal lession (numbers of chicks), +++ [1] | Survival ratio (0.0033 % in diet) [%] | Survival ratio (0.0066 % in diet) [%] | Caecal lession (numbers of chicks), + (grade + (light), 0.0066 % in diet, groups of 10 chicks) | Caecal lession (numbers of chicks), ++ [3] | Caecal lession (numbers of chicks), ++ [4] | Caecal lession (numbers of chicks), +++ [3] | Caecal lession (numbers of chicks), +++ [4]
CCCc1ncc(C[n+]2ccccc2C)c(N)n1 [Amprolium hydrochloride, reference compound] | 40 | 70 | 2 numbers of chicks | 10 numbers of chicks | 8 numbers of chicks |  |  |  |  |  |  | 
Cc1nc(C)c(Cl)c(O)c1Cl [Clopidol, reference compound] | 50 | 70 | 4 numbers of chicks | 10 numbers of chicks | 6 numbers of chicks |  |  |  |  |  |  | 
N=C(N/N=C/c1ccc(Cl)cc1)N/N=C/c1ccc(Cl)cc1 [Robenidine hydrochloride, reference compound] |  |  |  |  |  | 80 | 100 | 2 numbers of chicks | 2 numbers of chicks | 5 numbers of chicks | 8 numbers of chicks | 3 numbers of chicks
